Patent publication US9155776B2, “Low frequency glatiramer acetate therapy” (Yeda Research & Development Co., Ltd., priority 2009, dated 2015)
Like-named read-outs stand apart in the source and are kept apart here.

Tests used:
MS patients = details: 20 mg/day subcutaneous (s.c.) dose; cited from earlier work
[1] = test system: patients who have experienced a clinically isolated syndrome (CIS); details: three s.c. injections over a period of seven days with at least one day between every injection
[2] = test system: patients who have experienced a clinically isolated syndrome (CIS); details: 20 mg daily s.c. injection; PCT/US2008/013146; cited from earlier work
[3] = test system: subjects with Relapsing-Remitting Multiple Sclerosis (RRMS)
Procedure: The study is designed to select three days a week for injection. Three injections are administered for every seven days and there must be at least one day between each injection.
Eligible subjects are randomized in a 2:1 ratio (40 mg:placebo) and assigned to one of the following three treatment arms: • 1. […] Matching placebo three times weekly (450 subjects)
During the PC phase, subjects are evaluated at study sites for a total of 7 scheduled visits at months: −1 (screening), 0 (baseline), 1, 3, 6, 9, and 12 (End of PC phase).
During the study, the following assessments are performed (regardless of the treatment assignment) at the specified time points: • Vital signs are measured at each study visit. • A physical examination is performed at months −1 (screening), 0 (baseline) 6, 12 (end of PC phase) and every 6 months thereafter. In addition, a physical examination will be performed at the termination visit of the OL phase. • The following safety clinical laboratory tests are performed: • Complete blood count (CBC) with differential—at all scheduled visits in the PC phase, and every 12 months thereafter. In addition this test will be performed at the termination visit of the OL phase. • Serum chemistry (including electrolytes, creatinine, urea and liver enzymes) and urinalysis—at all scheduled visits in the PC phase, and every 12 months thereafter. In addition this test will be performed at the termination visit of the OL phase. • Serum β-hCG in women of child-bearing potential is performed at months −1 (screening), 0 (baseline), 12 (end of PC phase), and every 12 months thereafter. In addition this test will be performed at the termination visit of the OL phase. • ECG is performed at months −1 (screening), 0 (baseline), 12 (end of PC phase), and every 12 months thereafter. In addition an ECG will be performed at the termination visit of the OL phase. • Chest X-ray is performed at month −1 (screening) if not performed within 6 months prior to screening visit. • Adverse Events (AEs) are monitored throughout the study. • Concomitant Medications are monitored throughout the study. • Neurological evaluations, including Neurostatus [Functional Systems (FS), Expanded Disability Status Scale (EDSS), Ambulation Index (AI)] are performed at months −1 (screening), 0 (baseline), 3, 6, 9, 12 (end of PC phase) and every 6 months thereafter. In addition, a neurological examination are performed at the termination visit of the OL phase. • The general health status is assessed by the EuroQoL (EQ5D) questionnaire at months 0 (baseline) and 12 (end of PC phase). • Additional quality of life parameters are assessed by the WPAI (Work Productivity and Activities Impairment) Questionnaire at month 0 (baseline), 3, 6, 9 and 12 (end of PC phase). • All subjects undergo MRI scans at months 0 (13-7 days prior to baseline visit), 6 and 12 (end of PC phase). Following the results of the PC phase, the Sponsor may decide to perform an MRI scan at the termination visit of the OL phase. • Relapses are confirmed/monitored throughout the study.
Route and Dosage Form: • Glatiramer Acetate 40 mg in 1 ml for subcutaneous injection in a pre-filled syringe (PFS), administered three times a week. • Matching placebo injection (mannitol in 1 ml WFI) for subcutaneous injection in a pre-filled syringe (PFS). Outcome Measures: Primary Outcome Measure: • The total number of confirmed relapses during the 12 month PC phase.

MS = details: controlled clinical trials; cited from earlier work
[4] = 40 mg s.c. three times weekly compared with 20 mg s.c. GA daily administration
[5] = 40 mg s.c. three times weekly vs placebo

## L-glutamic acid polymer with L-alanine, L-lysine, L-tyrosine, acetate (salt) [GA]
MS patients
  total number of enhancing lesions in MS patients as measured by MRI: has been shown to reduce
[1]
  efficacy in treatment of patients who have experienced a clinically isolated syndrome (CIS): expected to work
[2]
  efficacy in treatment of patients who have experienced a clinically isolated syndrome (CIS): has been shown to work
[3]; 40 mg s.c. three times weekly compared to the placebo group, RRMS subjects
  reduction of subject population annualized relapse rate: ≥ 30%
[3]; [4]
  increasing the proportion of relapse-free subjects during the placebo-controlled phase: at least as effective as 20 mg s.c. GA daily administration
  increasing the time to the first confirmed relapse during the placebo-controlled phase: at least as effective as 20 mg s.c. GA daily administration
  reducing the change from baseline to month 12 (end of placebo-controlled phase) in EDSS Score: at least as effective as 20 mg s.c. GA daily administration
  reducing the cumulative number of enhancing lesions on T1-weighted images taken at months 6 and 12: at least as effective as 20 mg s.c. GA daily administration
  reducing the level of disability as measured by EDSS Score: at least as effective as 20 mg s.c. GA daily administration
  reducing the level of disability as measured by EuroQoL (EQ5D) questionnaire: at least as effective as 20 mg s.c. GA daily administration
  reducing the level of disability as measured by the work productivity and activities impairment-General Health (WPAI-GH) questionnaire: at least as effective as 20 mg s.c. GA daily administration
  reducing the number of new T2 lesions at month 12: at least as effective as 20 mg s.c. GA daily administration
  reducing the number of new hypointense lesions on enhanced T1 scans at month 12 as compared to the baseline scan: at least as effective as 20 mg s.c. GA daily administration
  reducing the progression of MRI-monitored disease activity in the patient: at least as effective as 20 mg s.c. GA daily administration
  reducing the subject population annualized relapse rate: at least as effective as 20 mg s.c. GA daily administration
  reducing the total number of confirmed relapses during the placebo-controlled phase requiring hospitalization and/or IV steroids: at least as effective as 20 mg s.c. GA daily administration
[3]; 40 mg s.c. three times weekly compared with 20 mg s.c. GA daily administration, progression of at least 1 EDSS point sustained for at least 3 months
  reducing proportion (%) of subjects with confirmed EDSS progression during the placebo-controlled phase: at least as effective as 20 mg s.c. GA daily administration
[3]; [5]
  change from baseline to month (end of placebo-controlled phase) in EDSS Score: significantly reduces
  cumulative number of enhancing lesions on T1-weighted images taken at months 6 and 12: significantly reduces
  level of disability as measured by EDSS Score: significantly reduces
  level of disability as measured by EuroQoL (EQ5D) questionnaire: significantly reduces
  level of disability as measured by the work productivity and activities impairment-General Health (WPAI-GH) questionnaire: significantly reduces
  number of new T2 lesions at month 12: significantly reduces
  number of new hypointense lesions on enhanced T1 scans at month 12 as compared to the baseline scan: significantly reduces
  progression of MRI-monitored disease activity in the patient: significantly reduces
  proportion of relapse-free subjects during the placebo-controlled phase: significantly increases
  time to the first confirmed relapse during the placebo-controlled phase: significantly increases
  total number of confirmed relapses during the placebo-controlled phase requiring hospitalization and/or IV steroids: significantly reduces
[3]; 40 mg s.c. three times weekly vs placebo, progression of at least 1 EDSS point sustained for at least 3 months
  proportion (%) of subjects with confirmed EDSS progression during the placebo-controlled phase: significantly reduces

B1: IFNβ-1b: immunomodulator (IFNβ 1b) whose efficacy in MS was shown in controlled clinical trials (protein, UniProt P01574 22-187, looked up, variant C17S)
Interferon beta: MSYNLLGFLQRSSNFQSQKLLWQLNGRLEYCLKDRMNFDIPEEIKQLQQFQKEDAALTIYEMLQNIFAIFRQDSSSTGWNETIVENLLANVYHQINHLKTVLEEKLEKEDFTRGKLMSSLHLKRYYGRILHYLKAKEYSHCAWTIVRVEILRNFYFINRLTGYLRN
MS
  efficacy in the treatment of MS: demonstrated the efficacy
